Test [1] addresses T1, CDK12 (Homo sapiens (Human), UniProt Q9NYV4). Kind of test: Biochemical assay for CDK12 (IC50 determination), LANCE TR-FRET. The following applies: for IC50: ATP 100 μM, 60 min pre-incubation. The protocol:
The inhibitory activity of the test compounds was assessed by the LANCE TR-FRET assay, which detects the ATP-dependent phosphorylation of an ULight-4E-BP1 (Thr37/Thr46) substrate peptide (100 nM) by CDK12 (30 nM). Briefly, the enzyme reaction was run in reaction buffer (25 mM HEPES (pH 7.5), 10 mM MgCl2, 0.01% BSA, 0.01% Triton x, 1 mM DTT). The assay was performed in 384-well plate format. The end concentration of the ATP substrate was 100 μM, and that of the ULight-4E-BP1 (Thr37/Thr46) substrate peptide was 100 nM, and of CDK12 was 30 nM. Pre-incubation of the compound and enzyme was performed for 60 min at room temperature. After 60 min incubation at room temperature, the reaction was terminated by the addition of 40 mM EDTA and 0.5 nM Eu-labeled anti-phospho-eIF4E-binding protein (Thr37/46) antibody in LANCE detection buffer. […] The readout was calculated as (acceptor counts/donor counts)×1000. The IC50 values were derived by fitting a sigmoidal dose-response curve to a plot of assay readout over inhibitor concentration.
Target sequence in this assay (Q9NYV4 whole entry, looked up, species assumed): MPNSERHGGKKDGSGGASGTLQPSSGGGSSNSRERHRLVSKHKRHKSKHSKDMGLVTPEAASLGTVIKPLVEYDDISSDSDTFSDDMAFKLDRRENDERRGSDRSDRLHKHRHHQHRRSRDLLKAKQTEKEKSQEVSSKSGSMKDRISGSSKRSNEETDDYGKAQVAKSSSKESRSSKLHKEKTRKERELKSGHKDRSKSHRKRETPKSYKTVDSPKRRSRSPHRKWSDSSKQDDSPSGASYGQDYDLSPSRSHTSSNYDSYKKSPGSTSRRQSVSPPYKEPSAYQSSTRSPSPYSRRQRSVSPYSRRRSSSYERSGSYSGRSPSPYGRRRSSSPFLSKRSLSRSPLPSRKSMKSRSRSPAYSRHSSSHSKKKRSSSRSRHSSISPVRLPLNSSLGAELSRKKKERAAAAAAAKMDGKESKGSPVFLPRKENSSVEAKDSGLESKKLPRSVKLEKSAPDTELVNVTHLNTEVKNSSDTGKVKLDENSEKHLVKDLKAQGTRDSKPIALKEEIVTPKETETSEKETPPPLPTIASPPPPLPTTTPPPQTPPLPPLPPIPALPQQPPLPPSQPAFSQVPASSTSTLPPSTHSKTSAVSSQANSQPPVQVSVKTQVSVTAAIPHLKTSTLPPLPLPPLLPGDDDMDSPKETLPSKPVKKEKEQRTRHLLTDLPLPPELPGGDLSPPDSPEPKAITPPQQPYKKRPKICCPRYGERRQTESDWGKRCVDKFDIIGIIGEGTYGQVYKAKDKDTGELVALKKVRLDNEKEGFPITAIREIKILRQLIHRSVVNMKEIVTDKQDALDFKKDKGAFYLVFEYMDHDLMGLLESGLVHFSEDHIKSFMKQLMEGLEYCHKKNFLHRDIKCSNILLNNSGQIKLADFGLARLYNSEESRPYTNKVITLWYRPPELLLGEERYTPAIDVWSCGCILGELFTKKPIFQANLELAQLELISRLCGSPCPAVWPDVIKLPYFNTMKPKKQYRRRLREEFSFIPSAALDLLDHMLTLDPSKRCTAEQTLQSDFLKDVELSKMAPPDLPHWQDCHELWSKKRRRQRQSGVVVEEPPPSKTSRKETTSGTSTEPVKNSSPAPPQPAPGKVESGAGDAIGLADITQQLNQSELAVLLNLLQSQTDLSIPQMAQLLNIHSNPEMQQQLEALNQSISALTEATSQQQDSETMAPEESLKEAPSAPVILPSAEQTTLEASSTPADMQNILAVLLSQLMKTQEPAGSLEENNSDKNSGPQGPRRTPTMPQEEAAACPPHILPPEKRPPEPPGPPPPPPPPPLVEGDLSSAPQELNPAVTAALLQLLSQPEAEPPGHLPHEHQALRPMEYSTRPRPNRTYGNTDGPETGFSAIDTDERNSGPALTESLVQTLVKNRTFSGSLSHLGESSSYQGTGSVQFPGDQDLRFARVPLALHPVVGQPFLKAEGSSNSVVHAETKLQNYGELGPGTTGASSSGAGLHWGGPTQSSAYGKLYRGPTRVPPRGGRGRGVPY
Target sequence in this assay (O75909 whole entry partner, looked up, species assumed): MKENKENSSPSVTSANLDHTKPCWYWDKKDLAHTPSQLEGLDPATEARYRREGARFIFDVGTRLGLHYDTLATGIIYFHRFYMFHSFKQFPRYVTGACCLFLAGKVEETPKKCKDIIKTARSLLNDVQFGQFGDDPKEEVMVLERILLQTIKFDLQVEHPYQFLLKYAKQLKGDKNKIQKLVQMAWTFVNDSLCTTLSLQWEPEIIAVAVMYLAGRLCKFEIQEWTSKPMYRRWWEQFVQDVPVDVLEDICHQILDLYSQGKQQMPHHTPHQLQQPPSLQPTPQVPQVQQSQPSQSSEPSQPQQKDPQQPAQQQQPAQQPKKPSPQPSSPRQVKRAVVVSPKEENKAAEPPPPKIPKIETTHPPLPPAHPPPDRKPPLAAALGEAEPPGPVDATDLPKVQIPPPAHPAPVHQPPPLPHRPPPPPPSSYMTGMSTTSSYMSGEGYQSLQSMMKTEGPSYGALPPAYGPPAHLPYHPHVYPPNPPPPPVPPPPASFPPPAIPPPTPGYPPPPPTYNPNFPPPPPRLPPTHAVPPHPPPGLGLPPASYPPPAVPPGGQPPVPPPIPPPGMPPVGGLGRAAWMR

The next test addresses CDK13 (Homo sapiens (Human), UniProt Q14004). The experiment in a line: Biochemical assay for CDK13, LanthaScreen Eu Kinase Binding Assay. The following applies: for IC50: kinase tracer 236 100 nM; for Ratio CDK7/CDK13: ratio of IC50. The source says:
Binding of an inhibitor to the kinase competes for binding with the tracer, resulting in a loss of FRET signal.

Test [2] addresses T1, CDK12. The experiment in a line: CDK12 plate based target engagement assay in Jurkat cells. It counts as cell-based. The protocol:
Jurkat cells were treated with varying concentrations of the compound for 6 hours. The DMSO concentration was maintained at 0.1%. Cells were harvested and lysed. 200 μg of the lysate was incubated with 1 μM Bio-THZ531 in the presence of 1 mM DTT and incubated on a rocker at 4° C. overnight. 100 μL of this sample was added to pre-washed streptavidin coated plates and incubated at room temperature on a rocker for 2 hours. The plates were washed and incubated with CDK12 antibody for overnight at 4° C. Next day the plate was washed and incubated for 2 hours with HRP labelled anti rabbit secondary antibody. Bio-THZ531 bound CDK12 was determined using TMB substrate. […] Percentage CDK12 occupancy with the test compound was calculated over untreated control. Occupancy 50 was calculated by fitting the dose response data to sigmoidal curve fitting equation using GraphPad Prism software V5.

Test [3] concerns the target T2, CDK7 (Homo sapiens (Human), UniProt P50613). Kind of test: Biochemical assay for CDK7, LANCE TR-FRET. Particulars: read-out: CDK 7 IC50. The protocol:
The inhibitory activity of the test compounds was assessed by the LANCE TR-FRET assay, which detects the ATP-dependent phosphorylation of an ULight-myelin basic protein (MBP) substrate peptide (100 nM) by CDK7 (10 nM). Briefly, the enzyme reaction was run in reaction buffer (20 mM HEPES (pH 7.5), 10 mM MgCl2, 0.01% Triton x, 100 μM Sodium Orthovanadate, 1 mM DTT). The assay was performed in 384-well plate. The end concentration of the ATP substrate was 1 mM/100 μM, and that of the ULight-MBP substrate peptide was 100 nM, and of CDK7 was 10 nM. Pre-incubation of the compound and enzyme was performed for 60 min at room temperature. After 60 min incubation at room temperature, the reaction was terminated by the addition of 40 mM EDTA and 1 nM Eu-labeled anti-phospho-MBP-binding protein antibody in the buffer. […] The readout was calculated as (acceptor counts/donor counts)×1000. The IC50 values were derived by fitting a sigmoidal dose-response curve to a plot of assay readout over inhibitor concentration.
Target sequence in this assay (P50613 whole entry, looked up, species assumed): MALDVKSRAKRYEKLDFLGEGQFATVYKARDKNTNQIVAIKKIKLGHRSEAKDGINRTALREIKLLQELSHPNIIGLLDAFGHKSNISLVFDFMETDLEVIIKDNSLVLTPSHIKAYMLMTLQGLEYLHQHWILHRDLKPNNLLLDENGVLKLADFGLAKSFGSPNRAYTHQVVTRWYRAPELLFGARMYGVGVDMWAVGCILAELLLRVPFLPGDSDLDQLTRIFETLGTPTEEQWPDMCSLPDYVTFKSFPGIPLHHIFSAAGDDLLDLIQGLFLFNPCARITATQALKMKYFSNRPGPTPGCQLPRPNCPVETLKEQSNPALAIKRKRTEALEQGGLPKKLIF
Target sequence in this assay (P51946 whole entry partner, looked up, species assumed): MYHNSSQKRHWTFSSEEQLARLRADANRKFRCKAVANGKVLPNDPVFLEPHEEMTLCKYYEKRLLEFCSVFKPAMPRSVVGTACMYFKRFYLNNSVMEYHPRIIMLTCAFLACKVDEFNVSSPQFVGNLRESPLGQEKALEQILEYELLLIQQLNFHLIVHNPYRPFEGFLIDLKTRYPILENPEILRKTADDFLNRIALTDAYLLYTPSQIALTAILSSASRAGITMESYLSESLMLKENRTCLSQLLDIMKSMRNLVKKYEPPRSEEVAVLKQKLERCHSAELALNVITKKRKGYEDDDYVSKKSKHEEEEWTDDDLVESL
Target sequence in this assay (P51948 whole entry partner, looked up, species assumed): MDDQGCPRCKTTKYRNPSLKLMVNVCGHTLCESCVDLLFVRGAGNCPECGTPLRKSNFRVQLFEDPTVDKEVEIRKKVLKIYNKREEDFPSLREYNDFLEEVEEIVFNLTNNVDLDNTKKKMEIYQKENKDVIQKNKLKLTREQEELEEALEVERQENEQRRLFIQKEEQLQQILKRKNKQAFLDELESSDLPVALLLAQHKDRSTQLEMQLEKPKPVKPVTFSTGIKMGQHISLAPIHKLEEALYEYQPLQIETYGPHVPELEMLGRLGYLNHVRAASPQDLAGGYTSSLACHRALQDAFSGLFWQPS

Test [4] concerns the target T1, CDK12. The experiment in a line: Biochemical assay for CDK12 (Kd determination), kinase-tagged phage/qPCR competition binding. The protocol: Kinase-tagged T7 phage strains were grown in parallel in 24-well blocks in an E. coli host derived from the BL21 strain. E. coli were grown to log-phase and infected with T7 phage from a frozen stock (multiplicity of infection=0.4) and incubated with shaking at 32° C. until lysis (90-150 minutes). The lysates were centrifuged (6,000×g) and filtered (0.2 μm) to remove cell debris. The remaining kinases were produced in HEK-293 cells and subsequently tagged with DNA for qPCR detection. […] The liganded beads were blocked with excess biotin and washed with blocking buffer (SeaBlock (Pierce), 1% BSA, 0.05% Tween 20, 1 mM DTT) to remove unbound ligand and to reduce non-specific phage binding. […] Test compounds were prepared as 40× stocks in 100% DMSO and directly diluted into the assay. All reactions were performed in polypropylene 384-well plates in a final volume of 0.02 ml. […] The kinase concentration in the eluates was measured by qPCR.
Target sequence in this assay (Q9NYV4 whole entry, species assumed): as the sequence (Q9NYV4 whole entry, looked up, species assumed) above

Test [5] has as its target T2, CDK7. The experiment in a line: CDK7 target occupancy in Jurkat cells. It is filed as cell-based.
[6] abbreviates: ATP 1 mM/100 μM, 60 min pre-incubation.

Data on ten molecules can be found in patent US10894786B2, “Substituted pyrazole derivatives as selective CDK12/13 inhibitors” (Aurigene Discovery Technologies Limited, priority 2018, dated 2021).

Where two headings read alike, the source gives them in different places.

Turning to `C=CC(=O)N1CC=C(c2ccc(C(C)C(=O)Nc3cc(C4CC4)[nH]n3)cn2)CC1` (single isomer, unassigned) [Compound 6, 2-(1′-acryloyl-1′,2′,3′,6′-tetrahydro-[2,4′-bipyridin]-5-yl)-N-(5-cyclopropyl-1H-pyrazol-3-yl)propanamide], at CDK12 [1], the “Ratio CDK7/CDK12” value is 32.5 and the IC50 came out at 40 nM. For the same molecule, on CDK13, the IC50 was found to be 6 nM and the “Ratio CDK7/CDK13” value worked out at 216.66. Moreover, the “CDK12 Target Occupancy (Tocc50) μM in Jurkat cells” value (from here on “CDK12 Target Occupancy (Tocc50) μM”) on CDK12 [2] (Jurkat cells, 6 hours) came out at 0.012 µM. The IC50 on CDK7 [3] (setting [6]) is 1300 nM. The same molecule registered a Kd on CDK12 [4] of under 25 nM.
Regarding `C=CC(=O)N1CCC=C(c2ccc(C(C)C(=O)Nc3cc(C4CC4)[nH]n3)cn2)C1` (single isomer, unassigned) [Compound 37, 2-(1′-acryloyl-1′,2′,5′,6′-tetrahydro-[2,3′-bipyridin]-5-yl)-N-(5-cyclopropyl-1H-pyrazol-3-yl)propanamide], the IC50 against CDK12 [1] was 29 nM; on CDK13 it was 3 nM. Moreover, the “CDK12 Target Occupancy (Tocc50) μM” value on CDK12 [2] (Jurkat cells, 6 hours) worked out at 0.012 µM. Further, at CDK12 [4], the Kd was under 25 nM.
In the case of `C=CC(=O)N1CCC(c2ccc([C@H](C)C(=O)Nc3cc(C4CC4)[nH]n3)cc2)CC1` [Compound 12, (S)-2-(4-(1-acryloylpiperidin-4-yl)phenyl)-N-(5-cyclopropyl-1H-pyrazol-3-yl)propanamide], at CDK12 [1], the “Ratio CDK7/CDK12” value was 18.74 and the IC50 is 151 nM. For the same molecule, on CDK13, the IC50 stood at 7 nM and the “Ratio CDK7/CDK13” value is 404.28. Further, the “CDK12 Target Occupancy (Tocc50) μM” value at CDK12 [2] (Jurkat cells, 6 hours) turned out to be 0.080 µM. For the same molecule, the IC50 at CDK7 [3] (setting [6]) amounted to 2830 nM.
In the case of `C[C@H](C(=O)Nc1cc(C2CC2)[nH]n1)c1ccc(C2=CCN(C(=O)/C=C/CN(C)C)CC2)cc1` [Compound 15, (S,E)-N-(5-cyclopropyl-1H-pyrazol-3-yl)-2-(4-(1-(4-(dimethylamino)but-2-enoyl)-1,2,3,6-tetrahydropyridin-4-yl)phenyl)propanamide], the “Ratio CDK7/CDK12” value is on record as 2.64 on CDK12 [1] and 8.175 on CDK12 [2]. The IC50 against CDK12 [1] worked out at 235 nM; on CDK13, 18.8 nM; at CDK7 [3] (setting [6]), 621 nM. Moreover, the “Ratio CDK7/CDK13” value on CDK13 worked out at 33.03. Further, the “Jurkat Cells, CDK7 Target Occ50” value on CDK7 [5] came to 1671 nM. For the same molecule, the “Jurkat Cells, CDK12 Target Occ50” value at CDK12 [2] (Jurkat cells) is listed as 204.4 nM. Also, at CDK12 [2] (Jurkat cells target occupancy), the “binding affinity towards CDK12 in comparison to CDK7” value was over 8 fold. Besides, the “CDK12 Target Occupancy (Tocc50) μM” value on CDK12 [2] (Jurkat cells, 6 hours) was determined as 0.204 µM.
For `C=CC(=O)N1CCN(c2ccc(C(C)C(=O)Nc3cc(C4CC4)[nH]n3)cc2)CC1` (stereo not drawn) [Compound 17, 2-(4-(4-acryloylpiperazin-1-yl)phenyl)-N-(5-cyclopropyl-1H-pyrazol-3-yl)propanamide], at CDK12 [1], the “Ratio CDK7/CDK12” value was determined as 13.49 and half-maximal inhibition (IC50) required 590 nM. For the same molecule, on CDK13, the IC50 worked out at 81 nM and the “Ratio CDK7/CDK13” value was found to be 98.27. Besides, the “CDK12 Target Occupancy (Tocc50) μM” value at CDK12 [2] (Jurkat cells, 6 hours) is 0.030 µM. Moreover, at CDK7 [3], the IC50 is 7960 nM. For the same molecule, at CDK12 [4], the Kd is over 100 nM.
For `C=CC(=O)N1CCC=C(c2ccc([C@H](C)C(=O)Nc3cc(C4CC4)[nH]n3)cc2)C1` [Compound 34, (S)-2-(4-(1-acryloyl-1,2,5,6-tetrahydropyridin-3-yl)phenyl)-N-(5-cyclopropyl-1H-pyrazol-3-yl)propanamide], the IC50 turned out to be 189 nM on CDK12 [1] and 4.3 nM on CDK13. At CDK12 [2] (Jurkat cells, 6 hours), the “CDK12 Target Occupancy (Tocc50) μM” value is 0.050 µM. At CDK12 [4], this molecule came in with a Kd of under 25 nM.
`C=CC(=O)N1CC=C(c2ccc(C(C)C(=O)Nc3cc(C4CC4)[nH]n3)cc2F)CC1` (stereo not drawn) [Compound 44, 2-(4-(1-acryloyl-1,2,3,6-tetrahydropyridin-4-yl)-3-fluorophenyl)-N-(5-cyclopropyl-1H-pyrazol-3-yl)propanamide]: at CDK12 [1], the “Ratio CDK7/CDK12” value amounted to 97.77 and the IC50 was found to be 9 nM. At CDK13, the IC50 stood at 5.8 nM and the “Ratio CDK7/CDK13” value is given as 151.72. Besides, the “CDK12 Target Occupancy (Tocc50) μM” value at CDK12 [2] (Jurkat cells, 6 hours) was 0.009 µM. Moreover, the IC50 on CDK7 [3] (setting [6]) came out at 880 nM.
As for `C#CC(=O)N1CC=C(c2ccc(C(C)C(=O)Nc3cc(C4CC4)[nH]n3)cn2)CC1` (stereo not drawn) [Compound 50, N-(5-cyclopropyl-1H-pyrazol-3-yl)-2-(1′-propioloyl-1′,2′,3′,6′-tetrahydro-[2,4′-bipyridin]-5-yl)propanamide], at CDK13, the IC50 was 7 nM and the “Ratio CDK7/CDK13” value came out at 1.71. Further, the “CDK12 Target Occupancy (Tocc50) μM” value at CDK12 [2] stood at 0.038 µM. The IC50 on CDK7 [3] is 12 nM.
For `CC#CC(=O)N1CCC=C(c2ccc(C(C)C(=O)Nc3cc(C4CC4)[nH]n3)cn2)C1` (stereo not drawn) [Compound 52, 2-(1′-(but-2-ynoyl)-1′,2′,5′,6′-tetrahydro-[2,3′-bipyridin]-5-yl)-N-(5-cyclopropyl-1H-pyrazol-3-yl)propanamide], at CDK12 [1], the “Ratio CDK7/CDK12” value is on record as 9.64 and the IC50 stood at 227 nM. Besides, at CDK13, the IC50 came to 19 nM and the “Ratio CDK7/CDK13” value came out at 115.26. Further, the “CDK12 Target Occupancy (Tocc50) μM” value on CDK12 [2] (Jurkat cells, 6 hours) was found to be 0.179 µM. For the same molecule, the half-maximal inhibitory concentration (IC50) at CDK7 [3] (setting [6]) was found to be 2190 nM.
Take `C=CC(=O)N1CC=C(c2ccc(CC(=O)Nc3cc(C4CC4)[nH]n3)cn2)C1` [Compound 53, 2-(6-(1-acryloyl-2,5-dihydro-1H-pyrrol-3-yl)pyridin-3-yl)-N-(5-cyclopropyl-1H-pyrazol-3-yl)acetamide]: on CDK12 [1], the “Ratio CDK7/CDK12” value came out at 779 and the IC50 is 10 nM. Further, on CDK13, the IC50 turned out to be 0.9 nM and the “Ratio CDK7/CDK13” value is 8655.55. In addition, the “CDK12 Target Occupancy (Tocc50) μM” value at CDK12 [2] (Jurkat cells, 6 hours) was determined as 0.014 µM. Besides, the IC50 on CDK7 [3] (setting [6]) worked out at 7790 nM.
